{"source": "patent US20020137929A1", "about": "“1 - (3-heterocyclylphenyl) isothiourea, -isourea, -guanidine and -amidine herbicidal agents” (Intellectual Property Department, BASF Aktiengesellschaft, priority 1998, published 2002)", "key": {"[1]": {"system": "SAGPY (Arrowhead (Pygmaea))", "test": "Preemergence weed control under flooded paddy conditions", "format": "in vivo, Sagittaria pygmaea", "conditions": "rated 3-4 weeks after treatment", "outline": "(§1)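 First, seeds or propagules go into the top 0.5 cm of silt loam; next, water is held 1.5 to 3 cm over the soil; then compound (50/50 acetone/water) is pipetted into it at about 0.0313 to 0.500 kg/ha; finally plants are rated visually 0-9 after three to four weeks.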"}, "[2]": {"system": "TRZAWR (Wheat, Winter, cv Riband)", "test": "Postemergence herbicidal evaluation", "format": "in vivo, Triticum aestivum", "conditions": "postemergence", "outline": "(§2)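 Visual 0-9 injury score (stand, vigor, malformation, size, chlorosis, appearance vs untreated) taken four to five weeks post-spray, averaged across repeat tests. Test plants about two weeks old; foliar spray of acetone/water (1:1) with 0.5% surfactant delivering ~0.0156-0.500 kg active/ha.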"}, "[3]": {"system": "AMBEL (Ragweed, Common)", "test": "Preemergence herbicidal evaluation", "format": "in vivo, Ambrosia artemisifolia", "conditions": "rated 4-5 weeks after treatment", "outline": "(§3)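 Rating at 4–5 wk post-spray on a 0–9 visual scale vs control. Application: aqueous acetone, ~0.0156–0.500 kg/ha, to soil surface after seeding, preemergence.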"}, "[4]": {"system": "ABUTH (Velvetleaf)", "test": "Preemergence herbicidal evaluation", "format": "in vivo, Abutilon theophrasti", "conditions": "rated 4-5 weeks after treatment", "outline": "as §3"}, "[5]": {"system": "CHEAL (Lambsquarters, Common)", "test": "Preemergence herbicidal evaluation", "format": "in vivo, Chenopodium album", "conditions": "rated 4-5 weeks after treatment", "outline": "as §3"}, "[6]": {"system": "IPOHE (Morningglory, Ivyleaf)", "test": "Preemergence herbicidal evaluation", "format": "in vivo, Ipomoea hederacea", "conditions": "rated 4-5 weeks after treatment", "outline": "as §3"}, "[7]": {"system": "AMBEL (Ragweed, Common)", "test": "Postemergence herbicidal evaluation", "format": "in vivo, Ambrosia artemisifolia", "conditions": "postemergence", "outline": "as §2"}, "[8]": {"system": "GLXMAW (Soybean, Williams)", "test": "Postemergence herbicidal evaluation", "format": "in vivo, Glycine max, (L.) Merr. cv Williams", "conditions": "postemergence", "outline": "as §2"}, "[9]": {"system": "CASOB (Sicklepod)", "test": "Preemergence herbicidal evaluation", "format": "in vivo, Cassia obtusifolia", "conditions": "rated 4-5 weeks after treatment", "outline": "as §3"}, "[10]": {"system": "ECHCG (Barnyardgrass)", "test": "Postemergence herbicidal evaluation", "format": "in vivo, Echinochloa crus-galli", "conditions": "postemergence", "outline": "as §2"}, "[11]": {"system": "ORYSAT (Rice, Tebonnet)", "test": "Preemergence herbicidal evaluation", "format": "in vivo, Oryza sativa, (L.) Tebonnet", "conditions": "rated 4-5 weeks after treatment", "outline": "as §3"}, "[12]": {"system": "IPOHE (Morningglory, Ivyleaf)", "test": "Postemergence herbicidal evaluation", "format": "in vivo, Ipomoea hederacea", "conditions": "postemergence", "outline": "as §2"}, "[13]": {"system": "CHEAL (Lambsquarters, Common)", "test": "Postemergence herbicidal evaluation", "format": "in vivo, Chenopodium album", "conditions": "postemergence", "outline": "as §2"}, "[14]": {"system": "CASOB (Sicklepod)", "test": "Postemergence herbicidal evaluation", "format": "in vivo, Cassia obtusifolia", "conditions": "postemergence", "outline": "as §2"}, "[15]": {"system": "MOOVA (Monochoria)", "test": "Preemergence weed control under flooded paddy conditions", "format": "in vivo, Monochoria vaginalis", "conditions": "rated 3-4 weeks after treatment", "outline": "as §1"}, "[16]": {"system": "GLXMAW (Soybean, Williams)", "test": "Preemergence herbicidal evaluation", "format": "in vivo, Glycine max, (L.) Merr. cv Williams", "conditions": "rated 4-5 weeks after treatment", "outline": "as §3"}}}
{"smiles": "CCOC(=O)CN1C(=O)C2(CC2)SC1=Nc1cc(-n2c(=O)cc(C(F)(F)F)n(C)c2=O)c(F)cc1Cl", "note": "[Compound 15, Ethyl 5-{{2-chloro-5-[3,6-dihydro-3-methyl-2,6-dioxo-4-(trifluoromethyl)-1(2H)-pyrimidinyl]-4-fluorophenyl}imino}-7-oxo-4-thia-6-azaspiro[2.4]-heptane-6-acetate]", "values": [{"measurement": "Herbicidal rating SAGPY", "setting": "[1]; 0.0313 kg/ha", "result": 0.0}, {"measurement": "Herbicidal rating SAGPY", "setting": "[1]; 0.0625 kg/ha", "result": 0.0}, {"measurement": "Herbicidal rating SAGPY", "setting": "[1]; 0.1250 kg/ha", "result": 0.0}, {"measurement": "Herbicidal rating SAGPY", "setting": "[1]; 0.2500 kg/ha", "result": 0.0}, {"measurement": "TRZAWR herbicidal rating", "setting": "[2]; rate 0.0156 kg/ha", "result": 5.0}, {"measurement": "TRZAWR herbicidal rating", "setting": "[2]; rate 0.0313 kg/ha", "result": 6.0}, {"measurement": "TRZAWR herbicidal rating", "setting": "[2]; rate 0.0625 kg/ha", "result": 6.5}, {"measurement": "TRZAWR herbicidal rating", "setting": "[2]; rate 0.1250 kg/ha", "result": 7.0}, {"measurement": "AMBEL preemergence herbicidal rating", "setting": "[3]; rate 0.0156 kg/ha", "result": 0.5}, {"measurement": "AMBEL preemergence herbicidal rating", "setting": "[3]; rate 0.0313 kg/ha", "result": 1.0}, {"measurement": "AMBEL preemergence herbicidal rating", "setting": "[3]; rate 0.0625 kg/ha", "result": 1.5}, {"measurement": "AMBEL preemergence herbicidal rating", "setting": "[3]; rate 0.1250 kg/ha", "result": 3.0}, {"measurement": "AMBEL preemergence herbicidal rating", "setting": "[3]; rate 0.2500 kg/ha", "result": 9.0}, {"measurement": "ABUTH preemergence herbicidal rating", "setting": "[4]; rate 0.0156 kg/ha", "result": 1.5}, {"measurement": "ABUTH preemergence herbicidal rating", "setting": "[4]; rate 0.0313 kg/ha", "result": 3.0}, {"measurement": "ABUTH preemergence herbicidal rating", "setting": "[4]; rate 0.0625 kg/ha", "result": 9.0}, {"measurement": "ABUTH preemergence herbicidal rating", "setting": "[4]; rate 0.1250 kg/ha", "result": 9.0}, {"measurement": "ABUTH preemergence herbicidal rating", "setting": "[4]; rate 0.2500 kg/ha", "result": 9.0}, {"measurement": "CHEAL preemergence herbicidal rating", "setting": "[5]; rate 0.0156 kg/ha", "result": 6.5}, {"measurement": "CHEAL preemergence herbicidal rating", "setting": "[5]; rate 0.0313 kg/ha", "result": 9.0}, {"measurement": "CHEAL preemergence herbicidal rating", "setting": "[5]; rate 0.0625 kg/ha", "result": 9.0}, {"measurement": "CHEAL preemergence herbicidal rating", "setting": "[5]; rate 0.1250 kg/ha", "result": 9.0}, {"measurement": "CHEAL preemergence herbicidal rating", "setting": "[5]; rate 0.2500 kg/ha", "result": 9.0}, {"measurement": "IPOHE preemergence herbicidal rating", "setting": "[6]; rate 0.0156 kg/ha", "result": 1.0}, {"measurement": "IPOHE preemergence herbicidal rating", "setting": "[6]; rate 0.0313 kg/ha", "result": 1.5}, {"measurement": "IPOHE preemergence herbicidal rating", "setting": "[6]; rate 0.0625 kg/ha", "result": 1.5}, {"measurement": "IPOHE preemergence herbicidal rating", "setting": "[6]; rate 0.1250 kg/ha", "result": 7.0}, {"measurement": "IPOHE preemergence herbicidal rating", "setting": "[6]; rate 0.2500 kg/ha", "result": 9.0}, {"measurement": "AMBEL herbicidal rating", "setting": "[7]; rate 0.0156 kg/ha", "result": 0.0}, {"measurement": "AMBEL herbicidal rating", "setting": "[7]; rate 0.0313 kg/ha", "result": 0.0}, {"measurement": "AMBEL herbicidal rating", "setting": "[7]; rate 0.0625 kg/ha", "result": 4.0}, {"measurement": "AMBEL herbicidal rating", "setting": "[7]; rate 0.1250 kg/ha", "result": 9.0}, {"measurement": "GLXMAW herbicidal rating", "setting": "[8]; rate 0.0156 kg/ha", "result": 3.5}, {"measurement": "GLXMAW herbicidal rating", "setting": "[8]; rate 0.0313 kg/ha", "result": 4.0}, {"measurement": "GLXMAW herbicidal rating", "setting": "[8]; rate 0.0625 kg/ha", "result": 4.5}, {"measurement": "GLXMAW herbicidal rating", "setting": "[8]; rate 0.1250 kg/ha", "result": 5.5}, {"measurement": "CASOB preemergence herbicidal rating", "setting": "[9]; rate 0.0156 kg/ha", "result": 0.0}, {"measurement": "CASOB preemergence herbicidal rating", "setting": "[9]; rate 0.0313 kg/ha", "result": 0.5}, {"measurement": "CASOB preemergence herbicidal rating", "setting": "[9]; rate 0.0625 kg/ha", "result": 0.5}, {"measurement": "CASOB preemergence herbicidal rating", "setting": "[9]; rate 0.1250 kg/ha", "result": 2.0}, {"measurement": "CASOB preemergence herbicidal rating", "setting": "[9]; rate 0.2500 kg/ha", "result": 6.5}, {"measurement": "ECHCG herbicidal rating", "setting": "[10]; rate 0.0156 kg/ha", "result": 0.0}, {"measurement": "ECHCG herbicidal rating", "setting": "[10]; rate 0.0313 kg/ha", "result": 0.0}, {"measurement": "ECHCG herbicidal rating", "setting": "[10]; rate 0.0625 kg/ha", "result": 3.0}, {"measurement": "ECHCG herbicidal rating", "setting": "[10]; rate 0.1250 kg/ha", "result": 9.0}, {"measurement": "ORYSAT preemergence herbicidal rating", "setting": "[11]; rate 0.0156 kg/ha", "result": 0.0}, {"measurement": "ORYSAT preemergence herbicidal rating", "setting": "[11]; rate 0.0313 kg/ha", "result": 0.0}, {"measurement": "ORYSAT preemergence herbicidal rating", "setting": "[11]; rate 0.0625 kg/ha", "result": 0.5}, {"measurement": "ORYSAT preemergence herbicidal rating", "setting": "[11]; rate 0.1250 kg/ha", "result": 1.0}, {"measurement": "ORYSAT preemergence herbicidal rating", "setting": "[11]; rate 0.2500 kg/ha", "result": 1.5}, {"measurement": "IPOHE herbicidal rating", "setting": "[12]; rate 0.0156 kg/ha", "result": 6.0}, {"measurement": "IPOHE herbicidal rating", "setting": "[12]; rate 0.0313 kg/ha", "result": 9.0}, {"measurement": "IPOHE herbicidal rating", "setting": "[12]; rate 0.0625 kg/ha", "result": 9.0}, {"measurement": "IPOHE herbicidal rating", "setting": "[12]; rate 0.1250 kg/ha", "result": 9.0}, {"measurement": "CHEAL herbicidal rating", "setting": "[13]; rate 0.0156 kg/ha", "result": 3.0}, {"measurement": "CHEAL herbicidal rating", "setting": "[13]; rate 0.0313 kg/ha", "result": 3.0}, {"measurement": "CHEAL herbicidal rating", "setting": "[13]; rate 0.0625 kg/ha", "result": 9.0}, {"measurement": "CHEAL herbicidal rating", "setting": "[13]; rate 0.1250 kg/ha", "result": 9.0}, {"measurement": "CASOB herbicidal rating", "setting": "[14]; rate 0.0156 kg/ha", "result": 0.0}, {"measurement": "CASOB herbicidal rating", "setting": "[14]; rate 0.0313 kg/ha", "result": 0.0}, {"measurement": "CASOB herbicidal rating", "setting": "[14]; rate 0.0625 kg/ha", "result": 0.0}, {"measurement": "CASOB herbicidal rating", "setting": "[14]; rate 0.1250 kg/ha", "result": 4.0}, {"measurement": "Herbicidal rating MOOVA", "setting": "[15]; 0.0313 kg/ha", "result": 9.0}, {"measurement": "Herbicidal rating MOOVA", "setting": "[15]; 0.0625 kg/ha", "result": 9.0}, {"measurement": "Herbicidal rating MOOVA", "setting": "[15]; 0.1250 kg/ha", "result": 9.0}, {"measurement": "Herbicidal rating MOOVA", "setting": "[15]; 0.2500 kg/ha", "result": 9.0}, {"measurement": "GLXMAW preemergence herbicidal rating", "setting": "[16]; rate 0.0156 kg/ha", "result": 0.5}, {"measurement": "GLXMAW preemergence herbicidal rating", "setting": "[16]; rate 0.0313 kg/ha", "result": 0.5}, {"measurement": "GLXMAW preemergence herbicidal rating", "setting": "[16]; rate 0.0625 kg/ha", "result": 1.0}, {"measurement": "GLXMAW preemergence herbicidal rating", "setting": "[16]; rate 0.1250 kg/ha", "result": 2.5}, {"measurement": "GLXMAW preemergence herbicidal rating", "setting": "[16]; rate 0.2500 kg/ha", "result": 5.5}]}
